Reference: publication PMC10597491 (PLOS ONE, 2023)
pEC50, pIC50: −log10 of the molar value. Bridge positions count the residues as written; N and C are the ends. Ends that are not written are not given here.

Columns and labels:
IL-7R = target: T1, IL-7R (Homo sapiens, UniProt P16871+P31785); test: STAT5 phosphorylation in TF1-7Rα cells; format: cell-based
T1 construct: constructed to express full-length human IL-7Rα in TF-1 cells; TF-1 cells, which naturally express γc, but not IL-7Rα; expressed in transfected cells
T1 sequence (P16871 21-459): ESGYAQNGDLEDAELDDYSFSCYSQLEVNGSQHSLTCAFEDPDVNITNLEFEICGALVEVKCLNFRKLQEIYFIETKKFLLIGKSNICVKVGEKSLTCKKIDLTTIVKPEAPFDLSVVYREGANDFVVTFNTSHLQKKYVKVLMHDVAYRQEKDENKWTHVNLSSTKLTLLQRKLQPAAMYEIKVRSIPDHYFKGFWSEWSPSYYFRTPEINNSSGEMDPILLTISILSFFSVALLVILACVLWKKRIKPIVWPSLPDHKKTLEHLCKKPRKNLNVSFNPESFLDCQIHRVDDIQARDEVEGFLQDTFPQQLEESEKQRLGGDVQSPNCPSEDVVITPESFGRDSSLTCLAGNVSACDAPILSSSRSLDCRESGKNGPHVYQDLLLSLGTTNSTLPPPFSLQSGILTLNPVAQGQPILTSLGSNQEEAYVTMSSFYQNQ
T1 sequence (P31785 23-369): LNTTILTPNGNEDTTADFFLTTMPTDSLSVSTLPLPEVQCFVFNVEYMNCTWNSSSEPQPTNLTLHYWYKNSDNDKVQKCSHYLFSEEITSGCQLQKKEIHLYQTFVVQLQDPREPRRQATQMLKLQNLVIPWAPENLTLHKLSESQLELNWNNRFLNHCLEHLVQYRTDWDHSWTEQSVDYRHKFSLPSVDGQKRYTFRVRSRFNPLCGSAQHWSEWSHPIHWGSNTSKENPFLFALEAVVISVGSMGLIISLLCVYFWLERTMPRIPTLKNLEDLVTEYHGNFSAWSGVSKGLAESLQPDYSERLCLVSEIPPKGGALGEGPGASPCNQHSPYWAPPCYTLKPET
Procedure: The synthetic peptide MDK1472 was designed to bind simultaneously to IL-7Rα and γc subunits and was tested for its ability to induce phosphorylation of STAT5, the primary IL-7R signaling pathway.
Reactions were stopped and cell lysates prepared for pSTAT5 analysis.
(§1) Cells were deprived of growth factors by overnight incubation at 5×10^5 cells/mL in starvation medium (RPMI 1640 + 4.5 g/L glucose + 0.2% FBS + 2 mM L-glutamine + 1 mM NaPyr + 10 mM HEPES + 0.5x penicillin-streptomycin with no cytokine supplement) in T75 flasks. For assays, cells were plated in 96-well V-bottom plates at 2×10^5 cells/well. Three-fold serial dilutions in starvation medium of the test compounds or cytokine were added to the cells and incubated for 30 min at 37°C. Following incubation, cell extracts were prepared by adding a mixture of 10x Cell Lysis Buffer (Cell Signaling Technology Cat# 9803) and 100x HALT Phosphatase and Protease Inhibitor Cocktail (Thermo Fisher Cat# 78442) directly to the wells. The plates were agitated at 25°C for 5 min to prepare cell extracts for immediate use or to be stored at -80°C until assay. Detection of pSTAT5 was performed using a PathScan® Phospho-Stat5 (pTyr694) Sandwich ELISA Kit (Cell Signaling Technology Cat# 7113). Detection of pSTAT6 was performed using a PathScan® Phospho-Stat6 (pTyr641) Sandwich ELISA Kit (Cell Signaling Technology Cat# 7275). Detection of pSTAT3 was performed using a PathScan® Phospho-Stat3 (pTyr705) Sandwich ELISA Kit (Cell Signaling Technology Cat# 7300). Cell lysates were added to pre-coated ELISA wells and incubated at 4°C overnight. Primary and secondary antibody incubations and wash steps were performed according to the protocols supplied by the manufacturer. Assays were developed using TMB substrate (Surmodics Cat# TMBW-1000-01) for 5–10 min at 25°C and the reaction was stopped using STOP solution (Surmodics Cat# LSTP-1000-01).

IL-2βγc receptor = target: T2, IL-2βγc receptor (Homo sapiens, UniProt P31785); test: IL-2-induced pSTAT5 in TF-1 cells expressing IL-2/15Rβ; format: cell-based
T2 construct: pcDNA3.1 expression vector encoding full-length IL-2Rβ, IL-7Rα, IL-9Rα, or IL-21Rα; TF-1 cells naturally express γc and IL-4Rα; expressed in transfected cells
T2 sequence (P31785 23-369): T1 sequence (P31785 23-369)
Procedure: as §1, with “Primary and secondary antibody incubations and wash steps were performed according to the protocols supplied by the manufacturer. Assays were developed using TMB substrate (Surmodics Cat# TMBW-1000-01) for 5–10 min at 25°C and the reaction was stopped using STOP solution (Surmodics Cat# LSTP-1000-01).” left out

cynomolgus monkey PBMCs = test: pSTAT5 flow cytometry in cynomolgus PBMC subsets; format: cell-based, cynomolgus macaque; details: rested cynomolgus PBMCs
From the text: Frozen PBMCs from 5 healthy human donors (A, B) and cynomolgus monkey (C) were rested (A, C) or activated with anti-CD3/CD28 (B). Cells were stained for viability, followed by cell surface antibody staining on ice. […] After washing, cells were fixed, permeabilized, stained with anti-pSTAT5 antibody, and analyzed immediately by flow cytometry. The mean fluorescence intensity (MFI) of pSTAT5 detection was shown as mean ± SEM. […] Flow cytometry gating data shown in S2 Fig.
To detect phopho-STAT5 in immune subsets of PBMCs by flow cytometry, frozen human and cynomolgus macaques PBMCs (Stemcell Technologies, Cat# 70025.2 and iQ Biosciences, Cat# IQB-MnPB102, respectively) from 5 different healthy donors were thawed and rested overnight in T-cell media (CTS™ OpTmizer™ T-Cell Expansion SFM, ThermoFisher Scientific Cat# A1048501) at 37°C. Cells were stained with a viability dye for 30 min at 37°C followed by surface marker antibodies for 30 min on ice (S3 Table), then treated with serially diluted test compounds in the medium for 30 min. […] Antibody-stained cells were analyzed immediately by flow cytometry using the Novocyte Advanteon instrument (Agilent), and the data were analyzed using FlowJo software. Fluorescence minus one (FMO) controls were used to draw gates. […]

Substance | pEC50 (IL-7R; Fig 4A dose response, 30 min at 37°C, pSTAT5 ELISA) | efficacy (Emax) of STAT5 phosphorylation relative to IL-7 (IL-7R; TF1-7Rα cells, Fig 3) | dependence of agonist activity on IL-7Rα expression (IL-7R; TF-1 parental (γc+) versus TF1-7Rα cells) | pIC50 (IL-2βγc receptor) | efficacy in cynomolgus lymphocyte subtypes (cynomolgus monkey PBMCs)
Ac-GWGIPWCTLDPGSLQCAWLGKHGGGGSGGVVCQDWEGVELCWQGG (disulfide 7-16, 32-41) [MDK1472] | 7.74 | full efficacy | completely dependent on IL-7Rα expression | ~5.30 | –
IL-7: human IL-7 cytokine (Peprotech) | – | – | – | – | equivalent efficacy
